In general, IC50 refers to the concentration at which inhibition is half-maximal. A low value points to greater potency in that assay. What is called bioavailability is the share of a dose that reaches the circulation, judged against a reference dose that is usually intravenous.

These results are taken from patent publication US11136315B2, “CXCR2 antagonist” (MEDSHINE DISCOVERY INC., priority 2018, dated 2021).

For one data set, the target named is CXCR2 (Homo sapiens (Human), UniProt P25025). The data set can be described thus: PathHunter CXCR2 β-arrestin cell assay, antagonism of CXCL8 (EC80). The data set is classed as cell-based. To be noted: PathHunter CXCR2 β-arrestin cells, CXCL8 agonist at EC80. As to the method: The IC50 values were determined to evaluate the antagonistic activity of the test compounds against CXCR2.
Chain of CXCR2 (P25025 whole entry): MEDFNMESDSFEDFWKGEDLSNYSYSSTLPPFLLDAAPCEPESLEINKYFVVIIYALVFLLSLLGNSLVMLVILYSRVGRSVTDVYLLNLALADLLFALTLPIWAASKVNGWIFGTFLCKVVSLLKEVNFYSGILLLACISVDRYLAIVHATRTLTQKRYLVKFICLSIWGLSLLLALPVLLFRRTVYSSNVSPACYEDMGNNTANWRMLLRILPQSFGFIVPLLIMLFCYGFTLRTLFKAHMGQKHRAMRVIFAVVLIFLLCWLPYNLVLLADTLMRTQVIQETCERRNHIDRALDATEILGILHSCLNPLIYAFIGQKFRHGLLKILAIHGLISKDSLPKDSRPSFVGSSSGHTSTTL
PathHunter® CXCR2 β-arrestin cells (DiscoverX) were grown under normal conditions and seeded on a white-walled 384-microwell plate at 20 μL/well. Before testing, the cells were incubated at 37° C. for an appropriate time. The test compounds were serially diluted in DMSO at a three-fold dilution factor to obtain 8 serially diluted test compounds. Shortly before the test, the above serially diluted test compounds were further diluted with test buffer to 5 times the test concentration. 5 μL of the further diluted test compounds was added to the cells and then the cells were incubated at 37° C. for 30 minutes. The vehicle concentration was 1%. 5 μL of 6×EC80 agonist (CXCL8) buffer was added to the cells and then the cells were incubated at 37° C. for 90 minutes. 15 μL (50% v/v) of PathHunter detection reagent mixture was added in one portion, followed by one-hour incubation to generate the test signal. The microplates were read on a PerkinElmer Envision™ instrument for chemiluminescence signal. The biological activity of the test compounds was analyzed by CBIS data analysis suite (ChemInnovation, CA) and shown as IC50 values.

Data set [1] can be described thus: Pharmacokinetic evaluation in C57BL/6 mice. It is filed as in vivo. The conditions noted are these: male, mouse, plasma; for clearance / half-life / AUC: intravenous 1 mpk / gavage 5 mpk study; for half-life: read-out: Half-life T1/2 (converted); for AUC: route not stated, unit printed shifted under first column, read-out: Area under the drug concentration time curve (AUC); for bioavailability: po, 5 mg/kg, gavage 5 mpk vs intravenous 1 mpk, read-out: Bioavailability (F). As for the experimental part:
The pharmacokinetic parameters of the compounds in C57BL/6 mice were investigated.
C57BL/6 mice (male, 18-30 g, 7-9 weeks old, Shanghai Lingchang Biotechnology Co., Ltd.)
Formulations containing an aqueous solution of 1% DMSO/10% hydroxypropyl-β-cyclodextrin as the vehicle were administered by intravenous injection (1 mpk), formulations containing an aqueous solution of 1% DMSO/1% hydroxypropyl methylcellulose/0.2% Tween 80 as the vehicle were administered by gavage (5 mpk). Before the animal experiment, all animals were fasted, and fed 4 hours after administration; all animals were free to drink water. The time points of blood collection: intravenous injection administration group: 0.083, 0.25, 0.5, 1, 2, 4, 6, 8 and 24 hours; gavage administration group: 0.25, 0.5, 1, 2, 4, 6, 8 and 24 hours.
(§1) Whole blood samples (0.03 mL) were collected through the saphenous vein (or other suitable blood collection sites) at the prescribed time points, and all blood samples were added to labeled plastic centrifuge tubes containing K2-EDTA anticoagulant. After the blood samples were collected, the plasma was isolated by centrifugation, immediately placed in dry ice and stored at low temperature. All samples were analyzed by LC-MS/MS with a minimum detection limit of 2 nM. The non-compartmental model of WinNonlin™ Version 6.3 (Pharsight, Mountain View, Calif.) pharmacokinetic software was used to process the mean plasma concentration, and the linear-log trapezoid method was used to calculate the pharmacokinetic parameters.

Data set [2] can be described thus: Pharmacokinetic and tissue distribution in Lewis rats. The data set is classed as in vivo. The conditions noted are these: male, rat, lung / plasma, oral, 5 mg/kg, gavage 5 mpk, read-out: Ratio in lung blood. As to the method:
The pharmacokinetic and tissue distribution of the compounds in Lewis rats was tested.
Lewis rats (male, 202-239 g, 7-9 weeks old, Beijing Viton Lihua)
Formulations containing an aqueous solution of 1% hydroxypropyl methylcellulose/0.2% Tween 80 as the vehicle were administered by gavage (5 mpk). Before the animal experiment, all animals were fasted overnight, and fed 4 hours after administration; all animals were free to drink water. The time points of blood collection: danirixin administration group: 0.25, 1, 8 hours; gavage administration group: 0.5, 1, 4 hours.
as §1, with “(0.2” for “(0.03”, “separated” for “isolated”, “log-linear” for “linear-log”

`Cc1cc2c(o1)C(NC(=O)Nc1ccc(Cl)c(S(=O)(=O)[C@H]3CCCNC3)c1O)CCC2` (stereo partly shown) [WX029]: the IC50 on CXCR2 came out at 15 nM. As for `CC(C)S(=O)(=O)c1c(Cl)ccc(NC(=O)NC2CCCc3occc32)c1O` (single isomer, unassigned) [WX002A], on CXCR2, the IC50 was 45 nM.

At CXCR2, `NCCS(=O)(=O)c1c(Cl)ccc(NC(=O)NC2CCCc3ccoc32)c1O` (stereo not shown) [WX015] came in with an IC50 of 186 nM. Still for that read-out and setting: the figure for `COC(=O)NCCS(=O)(=O)c1c(Cl)ccc(NC(=O)NC2CCCc3ccoc32)c1O` (single isomer, unassigned) [WX017A] is 72 nM; for `Cc1cc2c(o1)C(NC(=O)Nc1ccc(Cl)c(S(=O)(=O)[C@H]3CCCNC3)c1O)CCC2` (single isomer, unassigned) [WX029A] it is 2 nM. Consider `CC(C)S(=O)(=O)c1c(Cl)ccc(NC(=O)N[C@H]2CCCc3ccoc32)c1O` [WX003A], for which, in data set [1], the clearance amounted to 11.2 mL/min/kg, the half-life is 2.22 h, the AUC was found to be 12.7 µM·h and the bioavailability is 70.3%. Further, on CXCR2, the concentration for half-maximal inhibition (IC50) amounted to 17 nM. At CXCR2, `O=C(Nc1ccc(Cl)c(S(=O)(=O)C2CCCCC2)c1O)N[C@H]1CCCc2ccoc21` [WX011A] yielded an IC50 of 70 nM. In the case of `O=C(Nc1ccc(Cl)c(S(=O)(=O)CCN2C(=O)c3ccccc3C2=O)c1O)NC1CCCc2ccoc21` (stereo not shown) [WX014], the IC50 on CXCR2 came to 232 nM. Turning to `O=C(Nc1ccc(Cl)c(S(=O)(=O)C2CC3(CCNCC3)C2)c1O)N[C@H]1CCCc2ccoc21` (single isomer, unassigned) [WX022A], the IC50 on CXCR2 turned out to be 366 nM. Against the preceding molecule, the IC50 is about 1.6-fold higher.

For the molecule `O=C(Nc1ccc(Cl)c(S(=O)(=O)C2CC2)c1O)NC1CCCc2ncsc21` (stereo not shown) [WX028], on CXCR2, the IC50 amounted to 472 nM.

On CXCR2, `O=C(Nc1ccc(Cl)c(S(=O)(=O)C2CC2)c1O)NC1CCCc2cc(C(F)(F)F)oc21` (stereo not shown) [WX032] came in with an IC50 of 144 nM. On the same count and under the same terms, the figure for `O=C(Nc1ccc(Cl)c(S(=O)(=O)C2CCCC2)c1O)N[C@H]1CCCc2ccoc21` [WX010A] is 61 nM; for `O=C(Nc1ccc(Cl)c(S(=O)(=O)C2CCNCC2)c1O)N[C@H]1CCCc2ccoc21` (single isomer, unassigned) [WX023A] it is 36 nM. For the molecule `O=C(Nc1ccc(Cl)c(S(=O)(=O)[C@H]2CCCNC2)c1O)NC1CCCc2cc(C(F)(F)F)oc21` (single isomer, unassigned) [WX030B], the concentration for half-maximal inhibition (IC50) at CXCR2 was found to be 22 nM. Besides, the Kp in data set [2] was found to be 2.17. For the molecule `CC(C)(C)OC(=O)N1CCC[C@H](S(=O)(=O)c2c(Cl)ccc(NC(=O)NC3CCCc4ccoc43)c2O)C1` (single isomer, unassigned) [WX004A], at CXCR2, the IC50 amounted to 43 nM. Same read-out and setting: the figure for `CC(C)(Cc1ccccc1)S(=O)(=O)c1c(Cl)ccc(NC(=O)N[C@H]2CCCc3ccoc32)c1O` (single isomer, unassigned) [WX020A] is 177 nM. In the case of `CC1(C)NCCCC1S(=O)(=O)c1c(Cl)ccc(NC(=O)NC2CCCc3ccoc32)c1O` (stereo not shown) [WX036], the IC50 on CXCR2 worked out at 23 nM.

On CXCR2, `O=C(Nc1ccc(Cl)c(S(=O)(=O)C2CC2)c1O)N[C@H]1CCCc2ccsc21` (single isomer, unassigned) [WX027A] came in with an IC50 of 269 nM. On the same count and under the same terms, the value for `O=C(Nc1ccc(Cl)c(S(=O)(=O)C2CC2)c1O)N[C@@H]1CCCc2sccc21` (single isomer, unassigned) [WX025B] was 139 nM; that for `O=C(Nc1ccc(Cl)c(S(=O)(=O)[C@H]2CCCNC2)c1O)NC1CCCc2occc21` (single isomer, unassigned) [WX001A] was 152 nM. In turn, `O=C(Nc1ccc(Cl)c(S(=O)(=O)C2CC3(CNC3)C2)c1O)NC1CCCc2ccoc21` (single isomer, unassigned) [WX021A] yielded an IC50 at CXCR2 of 720 nM. This IC50 is about 4.7-fold higher than that of the molecule before.

Regarding `CC(C)S(=O)(=O)c1c(Cl)ccc(NC(=O)NC2CCCc3cc(C(F)(F)F)oc32)c1O` (stereo not shown) [WX034], on CXCR2, the IC50 is 55 nM.

`O=C(Nc1ccc(Cl)c(S(=O)(=O)CCNC(=O)C2CC2)c1O)NC1CCCc2ccoc21` (single isomer, unassigned) [WX016A]: the IC50 on CXCR2 was found to be 134 nM. As for `O=C(Nc1ccc(Cl)c(S(=O)(=O)CC(F)(F)F)c1O)N[C@H]1CCCc2ccoc21` [WX012A], in data set [1], the clearance amounted to 15.8 mL/min/kg, the half-life was 0.94 h, the AUC amounted to 9.39 µM·h and the bioavailability is 82.5%. Besides, on CXCR2, the IC50 came to 17 nM. Consider `O=C(Nc1ccc(Cl)c(S(=O)(=O)C2CCCNC2)c1O)NC1CCCc2sccc21` (single isomer, unassigned) [WX024B], for which, on CXCR2, the IC50 came out at 667 nM. This lies in the sub-micromolar range. Same read-out and setting: the figure for `Cc1cc2c(o1)C(NC(=O)Nc1ccc(Cl)c(S(=O)(=O)[C@H]3CCCNC3)c1O)CCC2` (single isomer, unassigned) [WX029B] is 245 nM; for `CCS(=O)(=O)c1c(Cl)ccc(NC(=O)NC2CCCc3ccoc32)c1O` (single isomer, unassigned) [WX007A] it is 42 nM; for `Cc1cc2c(o1)C(NC(=O)Nc1ccc(Cl)c(S(=O)(=O)C3CC3)c1O)CCC2` (stereo not shown) [WX033] it is 6 nM.

Take `O=C(Nc1ccc(Cl)c(S(=O)(=O)[C@H]2CCCNC2)c1O)NC1CCCc2ccoc21` (single isomer, unassigned) [WX013A]: in data set [1], the clearance came out at 30.8 mL/min/kg, the half-life was 2.21 h, the AUC worked out at 4.44 µM·h and the bioavailability came out at 75.5%. At CXCR2, the 50% inhibitory concentration (IC50) was found to be 14 nM. For the molecule `CS(=O)(=O)c1c(Cl)ccc(NC(=O)N[C@H]2CCCc3ccoc32)c1O` [WX008A], the IC50 at CXCR2 was 122 nM.

As to `O=C(Nc1ccc(Cl)c(S(=O)(=O)C2CC2)c1O)NC1CCCc2ccoc21` (single isomer, unassigned) [WX006A], in data set [1], the clearance was 8.3 mL/min/kg, the half-life was 3.09 h, the AUC was determined as 20.1 µM·h and the bioavailability was found to be 83.8%. The molecule also yielded an IC50 at CXCR2 of 22 nM. Turning to `CC(C)(C)S(=O)(=O)c1c(Cl)ccc(NC(=O)NC2CCCc3ccoc32)c1O` (single isomer, unassigned) [WX005A], the IC50 on CXCR2 worked out at 14 nM. On the same count and under the same terms, the value for `O=C(CS(=O)(=O)c1c(Cl)ccc(NC(=O)NC2CCCc3ccoc32)c1O)NCC(F)(F)F` (single isomer, unassigned) [WX018A] was 133 nM; that for `O=C(Nc1ccc(Cl)c(S(=O)(=O)C2CCC2)c1O)NC1CCCc2ccoc21` (stereo not shown) [WX009] was 177 nM; that for `O=C(Nc1ccc(Cl)c(S(=O)(=O)C2CCCNC2)c1O)NC1CCCc2sccc21` (single isomer, unassigned) [WX024A] was 525 nM.
